Holding throughout (assay type): physicochemical
The nature of data set [1]: Storage stability of the crystalline hydrate at 40° C. and 75% RH. Here is the method:
A sample of the dihydrochloride salt of the invention, about 50 mg, was stored in a 20 mL glass vial at 40° C. and 75% relative humidity. At specific intervals, aliquots of sample were dispensed and analyzed by PXRD and by DSC and TGA. The low temperature (i.e. below 150° C.) features in the DSC and TGA traces are characteristic of a hydrate. The hydrate form is observed to be stable when stored at 40° C. and 75% RH.

Data set [2] can be described thus: Thermogravimetric analysis (TGA). The method, then: Thermogravimetric analysis (TGA) was performed using a TA Instruments Model Q-500 module. Data were collected and analyzed using TA Instruments Thermal Advantage for Q Series™ software. […] The balance and furnace chambers were purged with nitrogen during use. Representative TGA traces for samples of crystalline dihydrochloride and dihydrobromide salts of the invention are also shown in FIGS. 2 and 4, respectively.
(§1) The crystalline acid salts of the compound of formula I of Comparative Examples 1-4 were analyzed by PXRD, DSC, and TGA. The temperatures at which endothermic heat flow was observed by DSC, and weight loss was observed by TGA, along with confirmation of crystallinity by PXRD are summarized in Table II where the stoichiometry is indicated by the number of molar equivalents of acid used to prepare the acid salt.

Data set [3] in a line: Differential scanning calorimetry (DSC). The method, then:
Differential scanning calorimetry (DSC) was performed using a TA Instruments
Model Q-100 module. Data were collected and analyzed using TA Instruments Thermal Advantage for Q Series™ software. A sample of about 1-2 mg was accurately weighed into an aluminum pan with lid. The sample was evaluated using a linear heating ramp of 5° C./min from ambient temperature to at least 225° C. The DSC cell was purged with dry nitrogen during use. Representative DSC traces for samples of the crystalline dihydrochloride and dihydrobromide salts of the invention are shown in FIGS. 2 and 4, respectively.
as §1

Data set [4] is described as follows: Dynamic moisture sorption assessment. The note with it: humidity range of 40% to 60% relative humidity. Here is the method:
Dynamic moisture sorption (DMS) assessment was performed at 25° C. using a VTI atmospheric microbalance, SGA-100 system (VTI Corp., Hialeah, Fla. 33016). A sample size of approximately 5-10 mg was used and the humidity was set at the ambient value at the start of the analysis. A typical DMS analysis consisted of three scans: ambient to 2% relative humidity (RH), 2% RH to 90% RH, 90% RH to 5% RH at a scan rate of 5% RH/step. The mass was measured every two minutes and the RH was changed to the next value (+5% RH) when the mass of the sample was stable to within 0.01% for 5 consecutive points. Representative DMS traces for samples of crystalline dihydrochloride and dihydrobromide salts of the invention are shown in FIGS. 5 and 6, respectively.

The nature of data set [5]: Solid state stability assessment (HPLC, Karl Fischer). The method, then:
Samples of the dihydrochloride salt of the invention, about 100 mg each, were stored in multiple 4 mL glass vials with Teflon lined lids at 25° C. and 60% relative humidity (RH) and at 40° C. and 75% RH in open and closed containers. At specific intervals, the contents of a representative vial was removed and analyzed by the Karl Fisher method for water content and by the following HPLC method: • Column: Agilent Zorbax Bonus RP, 4.6×250 mm, 5 μm (Agilent Part No. 880668-901); • Mobile Phase A: 88% water, 2% acetonitrile, 10% 100 mM potassium phosphate; • Mobile Phase B: 20% water, 70% acetonitrile; 10% 100 mM potassium phosphate; • Flow rate: 1.5 mL/min; • Injection Volume: 10 μL • Detector: 214 nm; • Gradient—Time in minutes (% Mobile Phase B): 0.0 (2); 1.0 (2); 9.0 (22); • 19.0 (28); 33.0 (63); 36.3 (100); 37.0 (2); and 42.0 (2).
Samples were prepared as 0.25 to 0.75 mg/mL solutions in 5% acetonitrile, 85% water, 10% 100 mM potassium phosphate for injection onto the HPLC.
The initial water content was 1.2%, as determined by Karl Fischer titration using a Brinkman Metrohm (Westbury, N.Y.) Karl Fischer Model 831 coulometer. After 6 months the water content of the samples stored in open containers at 25° C./60% RH and at 40° C./75% RH was 2.9% and 5.3%, respectively, an increase of 1.7% and 4.1%, respectively.

The mark [6] stands for this setting: 6 months, open containers, 25° C./60% RH.
Setting [7] is: 6 months, open containers, 40° C./75% RH.
[8] abbreviates: six months at 25° C. and 60% relative humidity.

Where only a bound is given, the exact number is not on record here.

`CC(=O)N1CCN(CCN2[C@@H]3CC[C@H]2CC(NC(=O)c2nn(C(C)C)c4ccccc24)C3)CC1.Cl.Cl.O` (stereo partly drawn) [hydrate, Crystalline hydrate of 1-isopropyl-1H-indazole-3-carboxylic Acid {(1S,3R,5R)-8-[2-(4-acetylpiperazin-1-yl)ethyl]-8-azabicyclo[3.2.1]oct-3-yl}amide dihydrochloride]: the “change in PXRD peak positions” value in data set [1] (8 weeks vs 12 weeks at 40° C./75% RH) is on record as “no significant change in PXRD peak positions”. Moreover, in data set [1] (40° C. and 75% RH), the “stability of hydrate form on storage” value is given as “stable”.
Turning to `CC(=O)N1CCN(CCN2[C@@H]3CC[C@H]2CC(NC(=O)c2nn(C(C)C)c4ccccc24)C3)CC1.O=C(O)/C=C/C(=O)O` (stereo partly drawn) [fumarate, fumaric Acid Salt of 1-isopropyl-1H-indazole-3-carboxylic acid {(1S,3R,5R)-8-[2-(4-acetylpiperazin-1-yl)ethyl]-8-azabicyclo[3.2.1]oct-3-yl}amide], in data set [2], the “TGA: temperature of weight loss” value was “loss ˜100 °C” and the “TGA: weight loss” value was 5-6% wt. The “DSC endotherm (temperature of endothermic heat flow)” value (“DSC endotherm” for short) in data set [3] was under 150 °C.
For the compound `O=[N+]([O-])O` [nitrate], in data set [2], the “TGA: temperature of weight loss” value was “loss ˜150 °C” and the “TGA: weight loss” value is on record as 5-6% wt. Also, the “DSC endotherm” value in data set [3] is under 100 °C.
As to `CC(=O)O` [acetate], in data set [2], the “TGA: temperature of weight loss” value was “˜100 °C”. Besides, in data set [3], the “DSC endotherm” value was “˜100 °C”.
In the case of `CC(=O)N1CCN(CCN2[C@@H]3CC[C@H]2C[C@@H](NC(=O)c2nn(C(C)C)c4ccccc24)C3)CC1.O=P(O)(O)O` [phosphate (1), Phosphoric Acid Salt of 1-isopropyl-1H-indazole-3-carboxylic Acid {(1S,3R,5R)-8-[2-(4-acetylpiperazin-1-yl)ethyl]-8-azabicyclo[3.2.1]oct-3-yl}amide], in data set [2], the “TGA: temperature of weight loss” value was “loss <100 °C” and the “TGA: weight loss” value is 3-5% wt.
With `Br.Br.CC(=O)N1CCN(CCN2[C@@H]3CC[C@H]2CC(NC(=O)c2nn(C(C)C)c4ccccc24)C3)CC1` (stereo partly drawn) [dihydrobromide salt, 1-isopropyl-1H-indazole-3-carboxylic Acid {(1S,3R,5R)-8-[2-(4-acetylpiperazin-1-yl)ethyl]-8-azabicyclo[3.2.1]oct-3-yl}amide dihydrobromide], the “TGA: temperature below which no (significant) thermal event” value in data set [2] is “about 250 °C”. For the same compound, the “weight gain (hygroscopicity)” value in data set [4] was “less than 1%”. Also, the “DSC: temperature below which no (significant) thermal events” value in data set [3] is “about 230 °C”.
As for `CC(=O)N1CCN(CCN2[C@@H]3CC[C@H]2CC(NC(=O)c2nn(C(C)C)c4ccccc24)C3)CC1.Cc1ccc(S(=O)(=O)O)cc1` (stereo partly drawn) [tosylate, p-toluene Sulfonic Acid Salt of 1-isopropyl-1H-indazole-3-carboxylic acid {(1S,3R,5R)-8-[2-(4-acetylpiperazin-1-yl)ethyl]-8-azabicyclo[3.2.1]oct-3-yl}amide], in data set [3], the “DSC endotherm” value is over 200 °C.
As for `CC(=O)N1CCN(CCN2[C@@H]3CC[C@H]2C[C@@H](NC(=O)c2nn(C(C)C)c4ccccc24)C3)CC1.Cl.Cl` [dihydrochloride salt, 1-isopropyl-1H-indazole-3-carboxylic Acid {(1S,3R,5R)-8-[2-(4-acetylpiperazin-1-yl)ethyl]-8-azabicyclo[3.2.1]oct-3-yl}amide dihydrochloride], the change in potency entry in data set [5] (6 months of storage, all conditions (25° C./60% RH, 40° C./75% RH, open and closed)) was “no detectable change in potency”. In data set [5] (setting [6]), the “increase of water content” value came out at 1.7% and the “water content (Karl Fischer)” value was 2.9%. Further, in data set [5] (setting [7]), the “increase of water content” value was 4.1% and the “water content (Karl Fischer)” value amounted to 5.3%. Further, in data set [5] (initial), the “initial potency compared with the freebase (HPLC area percentage)” value is reported as 82.4% and the “water content (Karl Fischer)” value is given as 1.2%. In data set [5] (setting [8]), the “chemical degradation by HPLC” value is on record as “no chemical degradation” and the “gain in moisture content” value is listed as under 2%. Also, the “TGA: temperature below which no (significant) thermal event” value in data set [2] is “about 180 °C”. The “weight gain (hygroscopicity)” value in data set [4] was “less than 1%”. Further, in data set [3], the “DSC: temperature below which no (significant) thermal events” value is “about 200 °C”; the “simultaneous melting and decomposition temperature (DSC and TGA)” value is 180-200 °C.
Consider benzoate, for which, in data set [2], the “TGA: temperature of weight loss” value was “˜100 °C”. Further, the “DSC endotherm” value in data set [3] is under 150 °C.

(Values after patent US20060183901A1, “Crystalline form of an indazole-carboxamide compound” (THERAVANCE, INC., priority 2005, published 2006).)
